According to publication PMC7238120, “Strong and Selective Inhibitory Effects of the Biflavonoid Selamariscina A against CYP2C8 and CYP2C9 Enzyme Activities in Human Liver Microsomes” (Pharmaceutics, 2020):
Where two headings read alike, the source gives them in different places.

Target: CYP2C9 (Homo sapiens, UniProt P11712)
Assay: Inhibition of CYP2C9-catalyzed diclofenac 4-hydroxylation in pooled human liver microsomes
Format: in vitro ADME
Design: incubation mixtures containing pooled human liver microsomes (HLMs, XTreme 200, XenoTech); tissue XenoTech XTreme 200; host or cells: pooled human liver microsomes
Protocol: The inhibitory potential of the five biflavonoids on the metabolism of nine P450 probe substrates was evaluated using previously developed methods with minor modifications. Biflavonoids were dissolved in methanol. The final concentration of methanol in the incubation mixture was 1.0% (v/v). We used these P450 probe substrates: phenacetin for CYP1A2, coumarin for CYP2A6, bupropion for CYP2B6, amodiaquine for CYP2C8, diclofenac for CYP2C9, omeprazole for CYP2C19, dextromethorphan for CYP2D6, chlorzoxazone for CYP2E1 and midazolam for CYP3A (Table 1). […] The reaction was stopped by adding 50 μL of ice-cold acetonitrile containing 7 nM trimipramine (internal standard, IS). After centrifugation at 18,000 g (5 min, 4 °C), aliquots of supernatants were analyzed by LC-MS/MS (Shimadzu LCMS 8060 system, Shimadzu, Kyoto, Japan). All microsomal incubations were conducted in triplicate. We used HLMs to determine the mechanisms and constants (Ki values) for […] A inhibition of CYP1A2, CYP2B6, CYP2C8, CYP2C9 and CYP3A. […] The substrates were used at concentrations approximately near to their respective Km values. […] The other conditions were the same as in the cytochrome P450 inhibition study. […] Phenomenex, Torrance, CA, USA) and analyzed using a Shimadzu LCMS 8060 triple-quadrupole mass spectrometer coupled with a Nexera X2 ultra high-performance liquid chromatography system (Shimadzu, Kyoto, Japan) equipped with an electrospray ionization interface. The mobile phase consisted of 0.1% formic acid in water (A) and 0.1% formic acid in acetonitrile (B). […] The flow rate was 0.2 mL/min. Electrospray ionization was performed in positive-ion mode at 4000 V or in negative-ion mode at -3500 V. […] Quantitation was conducted in selected reaction monitoring (SRM) modes with the precursor-to-product ion transition for each metabolite (Table 1 and Table 2). We analyzed the data with Shimadzu LabSolution LC-MS software. The IC50 values were calculated by WinNonlin software (Pharsight, Mountain View, CA, USA). The type of inhibition and the apparent kinetic parameters for inhibitory activity (Ki) were determined by following several criteria: visual inspection of Dixon plots, Lineweaver-Burk double reciprocal plots, and secondary plots of Lineweaver-Burk plots versus biflavonoid concentrations, the size of the sum of squares of the residuals, Akaike Information Criteria values, the S.E. and 95% confidence interval of the parameter estimates from the nonlinear regression analysis using the WinNonlin software. The models tested included competitive, competitive partial, noncompetitive, noncompetitive partial, uncompetitive, uncompetitive partial, and mixed-type inhibition.

[1] = substrate diclofenac 10 µM, pooled HLMs, read-out: IC50, P450 2C9

CYP2C9, sequence (P11712 whole entry): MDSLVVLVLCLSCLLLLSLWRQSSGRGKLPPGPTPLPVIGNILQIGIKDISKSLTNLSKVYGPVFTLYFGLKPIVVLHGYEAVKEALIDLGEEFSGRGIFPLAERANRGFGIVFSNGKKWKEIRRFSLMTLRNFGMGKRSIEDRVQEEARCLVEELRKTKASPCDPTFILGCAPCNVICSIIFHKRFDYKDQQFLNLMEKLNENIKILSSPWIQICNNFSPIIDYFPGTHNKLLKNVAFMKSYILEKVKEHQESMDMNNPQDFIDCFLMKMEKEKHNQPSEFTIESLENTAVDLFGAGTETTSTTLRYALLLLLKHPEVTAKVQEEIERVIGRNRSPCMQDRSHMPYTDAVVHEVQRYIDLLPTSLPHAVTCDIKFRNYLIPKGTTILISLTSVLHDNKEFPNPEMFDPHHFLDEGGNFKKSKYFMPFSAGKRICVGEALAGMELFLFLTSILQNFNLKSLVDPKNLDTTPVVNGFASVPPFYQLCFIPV

Row | Compound | IC50 [1] [µM] | other results
1 | O=c1cc(-c2ccc(O)c(-c3c(O)cc(O)c4c(=O)cc(-c5ccc(O)cc5)oc34)c2)oc2cc(O)cc(O)c12 [amentoflavone] | – | IC50: 0.15 µM
2 | CC(C)(O)c1ccccc1CC[C@@H](SCC1(CC(=O)O)CC1)c1cccc(/C=C/c2ccc3ccc(Cl)cc3n2)c1 [montelukast, reference compound] | 9.73 | inhibition at 10 min, 5 µM (human, pooled human liver microsomes, probe diclofenac, inhibitor 5 μM, pooled HLMs): 31%
3 | O=C1CC(c2cc(-c3c(O)ccc4c(=O)cc(-c5ccc(O)cc5)oc34)c(O)cc2O)Oc2cc(O)cc(O)c21 (stereo not shown) [selamariscina A] | 0.047 | Mode of Inhibition, CYP2C9 diclofenac (HLMs): Competitive; Ki (HLMs, average ± standard error, triplicate): 0.032 ± 0.007 µM; inhibition at 10 min, 0.5 µM (human, pooled human liver microsomes, probe diclofenac, inhibitor 0.5 μM, pooled HLMs): 88.6%

The next lines start with results.

Row | IC50 [1] [µM] | Compound | other results
4 | 0.21 | O=c1cc(-c2ccc(O)cc2)oc2c(-c3c(O)cc(O)c4c(=O)cc(-c5ccc(O)cc5)oc34)c(O)cc(O)c12 [cupressuflavone] | –
5 | 0.15 | O=c1cc(-c2ccc(O)c(-c3c(O)cc4oc(-c5ccc(O)cc5)cc(=O)c4c3O)c2)oc2cc(O)cc(O)c12 [robustaflavone] | –
6 | 0.2 | O=c1cc(-c2ccc(O)c(-c3c(-c4ccc(O)cc4)oc4cc(O)cc(O)c4c3=O)c2)oc2cc(O)cc(O)c12 [taiwaniaflavone] | –
